Data reported in the supplement of paper PMC11061612.

Experiments:
Test in all cases: Bliss excess, mean over the matrix (fraction); higher = more synergy
[1] = tested on: SW1573 (Lung Adenocarcinoma)
Outline: (§1)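 Bliss excess equals the observed combination effect minus the expected value EA + EB − EA·EB, where EA and EB are the effects of each agent alone. Combination Emax is the second-highest inhibition within the matrix. Inhibition was scaled from CellTiter-Glo 2.0 luminescence, with 0 set by vehicle wells and 1 by blank wells, after 72 hours of two-drug dosing of cells plated in 1536-well plates.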

[2] = tested on: Hs-746T (Gastric Carcinoma)
Outline: as §1

[3] = tested on: HH (T-Cell Non-Hodgkin's Lymphoma)
Outline: as §1

BPH-1 (Non-Cancerous) = tested on: BPH-1 (Non-Cancerous)
Outline: as §1

[4] = tested on: CAL-33 (Oral Cavity Carcinoma)
Outline: as §1

[5] = tested on: HuH-7 (Hepatocellular Carcinoma)
Outline: as §1

[6] = tested on: YAPC (Pancreatic Carcinoma)
Outline: as §1

[7] = tested on: NCI-H209 (Small Cell Lung Carcinoma)
Outline: as §1

[8] = tested on: ALL-PO (B-Lymphoblastic Leukemia)
Outline: as §1

[9] = tested on: BE-13 (T-Lymphoblastic Leukemia)
Outline: as §1

[10] = tested on: BFTC-909 (Kidney Carcinoma)
Outline: as §1

[11] = tested on: LS-123 (Colorectal Carcinoma)
Outline: as §1

[12] = tested on: FTC-133 (Thyroid Gland Carcinoma)
Outline: as §1

[13] = tested on: SNU-16 (Gastric Carcinoma)
Outline: as §1

[14] = tested on: L-428 (Hodgkin's Lymphoma)
Outline: as §1

[15] = tested on: ESS-1 (Other Solid Carcinomas)
Outline: as §1

[16] = tested on: TGBC1TKB (Biliary Tract Carcinoma)
Outline: as §1

[17] = tested on: NCI-H524 (Small Cell Lung Carcinoma)
Outline: as §1

[18] = tested on: HuCCT1 (Biliary Tract Carcinoma)
Outline: as §1

[19] = tested on: LNZTA3WT4 (Low Grade Glioma)
Outline: as §1

| SMILES | Bliss excess [1] | Bliss excess [2] | Bliss excess [3] | Bliss excess (BPH-1 (Non-Cancerous)) | Bliss excess [4] | Bliss excess [5] | Bliss excess [6] | Bliss excess [7] | Bliss excess [8] | Bliss excess [9] | Bliss excess [10] | Bliss excess [11] | Bliss excess [12] | Bliss excess [13] | Bliss excess [14] | Bliss excess [15] | Bliss excess [16] | Bliss excess [17] | Bliss excess [18] | Bliss excess [19] |
| --- | --- | --- | --- | --- | --- | --- | --- | --- | --- | --- | --- | --- | --- | --- | --- | --- | --- | --- | --- | --- |
| CCN(CCO)CCCOc1ccc2c(Nc3cc(CC(=O)Nc4cccc(F)c4)[nH]n3)ncnc2c1 [AZD2811] + C=CCn1c(=O)c2cnc(Nc3ccc(N4CCN(C)CC4)cc3)nc2n1-c1cccc(C(C)(C)O)n1 [AZD1775] (first compound max 1 µM, partner max 1 µM) | 0.0297 | 0.0312 | -0.0179 | -0.0007 | -0.0365 | -0.0232 | -0.0392 | 0.089 | 0.0382 | -0.0298 | 0.0293 | -0.0373 | 0.0641 | 0.0538 | 0.0106 | 0.042 | -0.0195 | -0.0253 | -0.0344 | -0.0501 |
| CCN(CCO)CCCOc1ccc2c(Nc3cc(CC(=O)Nc4cccc(F)c4)[nH]n3)ncnc2c1 [AZD2811] + C[C@@H]1COCCN1C2=NC(=NC(=C2)C3(CC3)[S@](=N)(=O)C)C4=C5C=CNC5=NC=C4 [AZD6738] (first compound max 1 µM, 7x7, partner max 10 µM) | -0.0394 | -0.0706 | -0.033 | -0.0111 | -0.0199 | -0.0453 | -0.0367 | 0.0731 | -0.0288 | -0.148 | -0.0231 | -0.0258 | 0.0103 | -0.0281 | 0.0145 | -0.018 | -0.0184 | -0.0399 | -0.0767 | -0.0315 |
| CCN(CCO)CCCOc1ccc2c(Nc3cc(CC(=O)Nc4cccc(F)c4)[nH]n3)ncnc2c1 [AZD2811] + O=C(c1cc(Cc2n[nH]c(=O)c3ccccc23)ccc1F)N1CCN(C(=O)C2CC2)CC1 [Olaparib] (first compound max 1 µM, 7x7, partner max 10 µM) | 0.0123 | -0.0553 | -0.0353 | 0.0466 | 0.0044 | -0.072 | -0.0124 | 0.0418 | 0.0133 | -0.0163 | 0.0468 | 0.0144 | -0.0174 | -0.0101 | 0.0277 | 0.021 | -0.0368 | -0.0602 | -0.0187 | -0.0005 |
| COc1nnc2ccc(N3CCC(c4ccc(OCCN5CCN(C)C(=O)[C@H]5C)cc4)CC3)nn12 [AZD5153] + C=CCn1c(=O)c2cnc(Nc3ccc(N4CCN(C)CC4)cc3)nc2n1-c1cccc(C(C)(C)O)n1 [AZD1775] (first compound max 1 µM, partner max 1 µM) | -0.0388 | -0.0556 | -0.0442 | 0.0246 | -0.0757 | 0.0129 | -0.0403 | 0.0223 | -0.0198 | -0.0879 | -0.0723 | -0.0445 | -0.0099 | -0.0385 | -0.0411 | -0.0749 | 0.015 | -0.0337 | -0.0778 | -0.0356 |
| COc1nnc2ccc(N3CCC(c4ccc(OCCN5CCN(C)C(=O)[C@H]5C)cc4)CC3)nn12 [AZD5153] + CC1(C)CCC(CN2CCN(c3ccc(C(=O)NS(=O)(=O)c4ccc(NCC5CCOCC5)c([N+](=O)[O-])c4)c(Oc4cnc5[nH]ccc5c4)c3)CC2)=C(c2ccc(Cl)cc2)C1 [Venetoclax] (first compound max 1 µM, 7x7, partner max 1 µM) | -0.118 | -0.119 | -0.065 | -0.0574 | -0.0393 | -0.0987 | -0.0115 | -0.008 | 0.058 | -0.0428 | -0.105 | 0.0205 | -0.0745 | -0.0522 | -0.082 | -0.017 | 0.0071 | -0.037 | -0.0517 | -0.0571 |
| COc1nnc2ccc(N3CCC(c4ccc(OCCN5CCN(C)C(=O)[C@H]5C)cc4)CC3)nn12 [AZD5153] + CCN(CCO)CCCOc1ccc2c(Nc3cc(CC(=O)Nc4cccc(F)c4)[nH]n3)ncnc2c1 [AZD2811] (first compound max 1 µM, 7x7, partner max 1 µM) | -0.0609 | -0.058 | 0.0055 | -0.0252 | -0.128 | -0.051 | -0.0203 | -0.0145 | -0.0134 | -0.0637 | 0.0272 | -0.0004 | -0.0014 | 0.0728 | 0.0085 | -0.0091 | 0.0017 | -0.0138 | -0.0331 | -0.0415 |
| COc1nnc2ccc(N3CCC(c4ccc(OCCN5CCN(C)C(=O)[C@H]5C)cc4)CC3)nn12 [AZD5153] + C[C@@H]1COCCN1C2=NC(=NC(=C2)C3(CC3)[S@](=N)(=O)C)C4=C5C=CNC5=NC=C4 [AZD6738] (first compound max 1 µM, 7x7, partner max 10 µM) | 0.109 | 0.0429 | -0.0324 | 0.0343 | -0.031 | 0.113 | 0.0088 | 0.019 | 0.0106 | -0.0227 | -0.0072 | 0.0091 | 0.0856 | -0.0408 | 0.009 | -0.0192 | 0.0016 | 0.0142 | -0.046 | 0.0648 |
| COc1nnc2ccc(N3CCC(c4ccc(OCCN5CCN(C)C(=O)[C@H]5C)cc4)CC3)nn12 [AZD5153] + Cc1c2c(nn1C)CSCc1cc(n(C)n1)CSc1cc(c3ccccc3c1)OCCCc1c(C(=O)O)n(C)c3c-2c(Cl)ccc13 [AZD5991] (first compound max 1 µM, 7x7, partner max 1 µM) | -0.0366 | -0.0244 | 0.0776 | -0.0093 | 0.0009 | 0.0546 | -0.0355 | 0.0546 | 0.0091 | 0.0075 | -0.0034 | -0.0249 | -0.0112 | 0.0403 | -0.023 | 0.0032 | 0.0069 | 0.0723 | -0.0543 | 0.0112 |
| COc1nnc2ccc(N3CCC(c4ccc(OCCN5CCN(C)C(=O)[C@H]5C)cc4)CC3)nn12 [AZD5153] + Cn1cnc2c(F)c(Nc3ccc(Br)cc3Cl)c(C(=O)NOCCO)cc21 [Selumetinib] (first compound max 1 µM, 7x7, partner max 10 µM) | -0.0062 | -0.0227 | -0.0817 | -0.0385 | 0.0584 | 0.006 | 0.0121 | -0.0214 | -0.0054 | -0.0209 | -0.0399 | 0.0261 | -0.0539 | -0.0058 | -0.0409 | -0.0065 | 0.0517 | -0.0216 | 0.0453 | -0.143 |
| Cc1c2c(nn1C)CSCc1cc(n(C)n1)CSc1cc(c3ccccc3c1)OCCCc1c(C(=O)O)n(C)c3c-2c(Cl)ccc13 [AZD5991] + C1CN(CCC1(C(=O)N[C@@H](CCO)C2=CC=C(C=C2)Cl)N)C3=NC=NC4=C3C=CN4 [Capivasertib] (first compound max 1 µM, 7x7, partner max 3 µM) | -0.0587 | 0.0327 | 0.0176 | 0.0123 | 0.0067 | -0.0116 | -0.0095 | 0.0273 | 0.0327 | 0.0349 | 0.0265 | 0.0203 | 0.0062 | -0.0001 | -0.0007 | -0.0113 | -0.0159 | 0.014 | -0.0405 | 0.0495 |
| Cc1c2c(nn1C)CSCc1cc(n(C)n1)CSc1cc(c3ccccc3c1)OCCCc1c(C(=O)O)n(C)c3c-2c(Cl)ccc13 [AZD5991] + C=CCn1c(=O)c2cnc(Nc3ccc(N4CCN(C)CC4)cc3)nc2n1-c1cccc(C(C)(C)O)n1 [AZD1775] (first compound max 1 µM, partner max 1 µM) | -0.0337 | -0.0096 | -0.0046 | -0.0071 | -0.0275 | -0.0259 | 0.0258 | 0.0103 | 0.0023 | -0.0097 | 0.0639 | -0.0197 | 0.0172 | 0.0049 | 0.0145 | -0.0715 | 0.0066 | -0.0274 | 0.0676 | -0.0292 |
| Cc1c2c(nn1C)CSCc1cc(n(C)n1)CSc1cc(c3ccccc3c1)OCCCc1c(C(=O)O)n(C)c3c-2c(Cl)ccc13 [AZD5991] + CN(C)CCCOc1ccc(-c2ccc3ncc4c(c3c2)n(C2CCOCC2)c(=O)n4C)cn1 [AZD0156] (first compound max 1 µM, 7x7, partner max 1 µM) | -0.0245 | 0.0008 | -0.0248 | 0.0896 | 0.0215 | 0.0316 | 0.0081 | 0.008 | -0.0005 | -0.0285 | 0.0101 | -0.01 | -0.0105 | 0.0313 | 0.0294 | 0.0027 | -0.0332 | 0.0301 | -0.04 | -0.0135 |
| Cc1c2c(nn1C)CSCc1cc(n(C)n1)CSc1cc(c3ccccc3c1)OCCCc1c(C(=O)O)n(C)c3c-2c(Cl)ccc13 [AZD5991] + C[C@@H]1COCCN1C2=NC(=NC(=C2)C3(CC3)[S@](=N)(=O)C)C4=C5C=CNC5=NC=C4 [AZD6738] (first compound max 1 µM, 7x7, partner max 10 µM) | 0.0337 | 0.0423 | 0.0317 | 0.0039 | 0.0008 | -0.0057 | 0.0715 | 0.138 | 0.0236 | 0.0135 | 0.0508 | -0.0046 | 0.0969 | 0.0167 | 0.023 | -0.0451 | 0.0537 | -0.0395 | 0.0206 | -0.0028 |
